Results: US20070167432A1, “Tricyclic triazolobenzapine derivative produced as novel crystalline substance” (MEIJI SEILA KAISHA, LTD, priority 2003, published 2007)

What was measured:
[1] = Absorbability test: oral administration to cynomolgus monkeys, Compound B in blood plasma as indicator; type: in vivo
Method: The α-type crystalline material obtained in Comparative Example 1 or the β-type crystalline material obtained in Example 1 was suspended in a 1 wt. % aqueous solution of methyl cellulose. Each suspension was orally administered to a group of cynomolgus monkeys that had not been fed one overnight (5 mg/kg, n=5). The two samples were compared, in terms of the change of Compound B concentration of blood plasma and the area under the medicine concentration in blood plasma-time curve (AUC), to evaluate the difference in absorbability between the samples. The Compound B concentration of blood plasma derived from the blood sample was determined in the following manner.
By centrifugally separating the blood (1 mL) taken from a saphenous vein (4° C., 3000 rpm, 10 minutes) in the presence of heparin, blood plasma was obtained. To this blood plasma (100 μL), a methanol solution containing an internal standard substance (sodium 7-methyl-4(5H),10-dioxo-2H-1,2,3-triazolo [4,5-c][1]benzazepine) (100 ng/mL, 100 μL) and methanol (400 μL) were added, and the mixture was stirred and was then subjected to centrifugal separation (4° C., 10000 rpm, 5 minutes). Methanol (300 μL) was added again to the supernatant, and the mixture was centrifugally separated under the same conditions as the previous manner. […]
Fluorescence detection wavelengths: Ex 270 nm, Em 466 nm […]

[2] = Solubility test in water (37° C.), Compound A concentration of filtrate by HPLC; type: physicochemical
Method: By using, as test samples, the β-type crystalline material obtained in Example 1 and the α-type crystalline material obtained in Comparative Example 1, a water (37° C.) solubility test was carried out. The test sample (about 10 mg) was added to 100 mL of water (37° C.), and the mixture was stirred at 1000 rpm. The mixture was sampled at some points of time, and each sample taken out was filtered through a membrane filter (Millex LG-13 manufactured by Millipore Corp, Japan). The compound A concentration of each filtrate was determined with high-performance liquid chromatography (HPLC). The measurement conditions were as follows:
HPLC: LC-10vp series (manufactured by Shimadzu Corp. Japan)
System controller: CBM-10A
Measurement wavelength: 246 nm
Column: Mightysil RP-18 GP 4.6×250 mm (manufactured by Kanto Chemical Co., Inc., Japan)
Column temperature: Fixed temperature at around 40° C.
Mobile phase: Mixture of methanol and water (55:45)
Amount of influent: 10 μL
Internal standard solution: Acetonitrile solution of propyl paraoxybenzoate (conc.200 μg/mL)

Row | absorption into organisms ([1]; background statement, administered as it is) | solubility in solvents such as water ([2]; background statement from applicant's experiments, solvents such as water) | Compound B concentration of blood plasma compared with the α-type-crystalline-material-administered group ([1]; cynomolgus monkeys, fasted overnight, oral 5 mg/kg, suspension in 1 wt. % aqueous methyl cellulose, n=5, FIG. 6) | water solubility compared with the α-type crystalline material ([2]; water 37° C.) | Structure (SMILES)
1 | cannot be easily absorbed | sparingly soluble | – | – | COc1cc2[nH]c(=O)c3nn(C(OC(=O)OC(C)C)C(C)C)nc3c(=O)c2cc1OC (stereo not drawn) [α-type crystalline material, 2-(1-Isopropoxycarbonyloxy-2-methylpropyl)-7,8-dimethoxy-4(5H),10-dioxo-2H-1,2,3-triazolo[4,5-c][1]benzazepine]
2 | – | – | higher values | higher | COc1cc2[nH]c(=O)c3nn(C(OC(=O)OC(C)C)C(C)C)nc3c(=O)c2cc1OC (stereo not drawn) [β-type crystalline material, 2-(1-Isopropoxycarbonyloxy-2-methylpropyl)-7,8-dimethoxy-4(5H),10-dioxo-2H-1,2,3-triazolo[4,5-c][1]benzazepine]
